From US20260365671A1, “HETEROCYCLIC COMPOUND” (Takeda Pharmaceutical Company Limited, priority 2022, published 2026)

Key:
NLRP3 inflammasome = molecular target: T1, NLRP3 inflammasome (Homo sapiens, UniProt Q96P20); experiment: IL-1β TR-FRET assay (THP-1 cells differentiated to macrophages with IFN-γ, LPS primed, ATP activated; HTRF); type: cell-based; details: THP-1 macrophages, 50 ng/mL LPS priming, compound 30 min, 20 mM ATP 2 hours
T1 construct: IL-1beta HTRF
Protocol: (§1) The biological activity of Compound (I) with respect to NLRP3 was determined using the following in vitro methods.
IL-1β TR-FRET Assay (Reported as IC50)
Monocytic THP-1 cells (ATCC: TIB-202) were maintained in accordance with the provider's instructions in RPMI media (Life Technologies, Cat #A10491-01); RPMI was supplemented with 10% heat inactivated fetal bovine serum (Corning, Cat #35-010-CV). The cells were differentiated into macrophages by the addition of 25 ng/mL IFN-γ (PeproTech, Cat #AF300-02-100UG) for 24 hours at 37 °C/5% CO2. Media was exchanged with fresh media with no FBS, and the cells were treated with 50 ng/mL LPS (priming step) (LPS-EK: Invivogen, Cat #tlrl-peklps). The cells were plated at 240,000 cells per well in 384-well flat-bottom cell culture plates (FALCON, Cat #353962) and were incubated for 24 hours at 37 °C/5% CO2. Compounds were serially diluted (half log dilutions) with DMSO and were finally diluted with Media with no FBS. The compounds were added to the cells in 384-well plates (added in 1:3) and then the plates were incubated for 30 minutes at 37 °C/5% CO2. The NLRP3 inflammasome was activated with the addition of 20 mM ATP (Sigma Cat #A3377-25G) and the cells were incubated for 2 hours at 37 °C/5% CO2. At the end of the incubation period, 30 μL supernatant was transferred to another 384-well plate and mixed on a plate shaker for 1 minutes. The supernatant was mixed with HTRF Antibody (Human IL1 beta kit, Cisbio, 62HIL1BPEH) in assay plates (Greiner Bio-One, Cat #784075) and the assay plates were incubated in shading box at room temperature for 16-24 hours. HTRF signal was measured by EnVision (Perkinelmer) in accordance with the manufacturer's instructions.
(§2) The IC50 values were calculated from a plot of percentage of inhibition versus the inhibitor concentration by a logistics curve fit according to: Y=[Bottom+(Top−Bottom)]/(1+10^[(Log IC50−X)·Hill Slope], where Y is the % inhibition at the inhibitor concentration, X, “Bottom” is the lowest inhibition value, i.e., 0%, “Top” is the maximum inhibition value, i.e., 100%, and the “Hill Slope” describes the slope of the sigmoidal curve between the “Bottom” and “Top” values. The curve fitting was conducted with XLfit (ver. 5.5.0.5, ID Business Solutions Limited) or internally developed software.
(§3) Table 2 lists in vitro biological assay data (IL-1β and TNF-α) for the compounds shown in the examples. These assays are described in the section entitled Biological Activity, above.

NF-κB pathway = experiment: TNF-α assay (THP-1 cells differentiated to macrophages with IFN-γ, NF-κB pathway activated with LPS; ELISA); type: cell-based, Human; details: compound 30 min, 50 ng/mL LPS 3 hours
Protocol: as §1
TNF-α Assay (Reported as IC50)
Monocytic THP-1 cells (ATCC: TIB-202) were maintained in accordance with the provider's instructions in RPMI media (Life Technologies, Cat #A10491-01); RPMI was supplemented with 10% heat inactivated fetal bovine serum (Hyclone Cat #SH30396.03). The cells were differentiated into macrophages by the addition of 25 ng/mL IFN-γ for 24 hours at 37 °C/5% CO2. Media was exchanged with fresh media with no FBS. The cells were plated at 40,000 cells per well in 384-well flat-bottom cell culture plates (Costar 3764) containing compounds (added in 1:1000) in a 1:3.16 serial dilution series in DMSO and were incubated for 30 minutes at 37 °C/5% CO2. The NF-κB pathway was activated with the addition of 50 ng/mL LPS and the cells were incubated for 3 hours at 37 °C/5% CO2. At the end of the incubation period, supernatant ([…]) was removed, and […] were monitored using an ELISA (Human TNF-α ELISA, R&D systems, Cat #DY210) according to the manufacturer's instructions.
as §2, §3

[1] = Homo sapiens, THP-1, THP-1 macrophages

T1 sequence (Q96P20 whole entry): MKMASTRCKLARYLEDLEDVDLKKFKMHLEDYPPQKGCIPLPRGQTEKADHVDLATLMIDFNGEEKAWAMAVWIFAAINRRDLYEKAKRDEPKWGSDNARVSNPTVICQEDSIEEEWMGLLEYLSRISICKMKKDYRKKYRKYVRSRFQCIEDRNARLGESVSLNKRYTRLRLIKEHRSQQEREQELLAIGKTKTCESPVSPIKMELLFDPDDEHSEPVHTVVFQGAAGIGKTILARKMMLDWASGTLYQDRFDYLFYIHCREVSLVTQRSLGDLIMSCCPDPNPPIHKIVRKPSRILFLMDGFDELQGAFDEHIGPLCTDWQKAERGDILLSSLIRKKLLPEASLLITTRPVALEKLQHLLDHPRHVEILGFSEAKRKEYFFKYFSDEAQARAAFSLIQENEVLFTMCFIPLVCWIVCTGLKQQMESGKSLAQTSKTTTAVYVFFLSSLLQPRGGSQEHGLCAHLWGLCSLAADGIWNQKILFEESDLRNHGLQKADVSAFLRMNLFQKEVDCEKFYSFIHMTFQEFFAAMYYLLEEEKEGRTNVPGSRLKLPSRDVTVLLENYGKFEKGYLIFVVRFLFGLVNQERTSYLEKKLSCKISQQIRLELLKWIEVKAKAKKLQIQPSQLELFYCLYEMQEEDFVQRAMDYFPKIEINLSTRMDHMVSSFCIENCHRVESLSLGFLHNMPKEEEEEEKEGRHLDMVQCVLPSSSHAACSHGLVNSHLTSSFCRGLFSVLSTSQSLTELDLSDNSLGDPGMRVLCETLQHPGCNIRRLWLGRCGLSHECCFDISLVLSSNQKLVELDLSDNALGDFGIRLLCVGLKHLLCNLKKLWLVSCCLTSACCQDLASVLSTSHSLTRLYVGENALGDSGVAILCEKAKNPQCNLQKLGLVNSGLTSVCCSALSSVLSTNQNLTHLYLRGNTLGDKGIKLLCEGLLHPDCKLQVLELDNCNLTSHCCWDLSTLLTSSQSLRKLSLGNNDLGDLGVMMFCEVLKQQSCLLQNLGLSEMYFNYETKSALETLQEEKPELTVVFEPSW

SMILES | IC50 (NLRP3 inflammasome) [nM] | IC50 (NF-κB pathway; [1]) [nM] | IC50 (NF-κB pathway; THP-1 macrophages) [nM]
Cc1cc(Cl)cc(O)c1-n1cc2c(nc(N[C@@H]3C[C@@H](F)CN(C)C3)n2C)n1 [Example 82, 5-chloro-2-[5-{[(3R,5R)-5-fluoro-1-methylpiperidin-3-yl]amino}-4-methylimidazo[4,5-c]pyrazol-2(4H)-yl]-3-methylphenol] | 49 | > 30000 | 
Cc1cc(C)c(-n2cc3sc(N[C@H]4CN(C(=O)C5(O)CC5)C[C@@H]4F)nc3n2)c(O)c1 (racemic) [Example 124, racemic mixture of [(3R,4R)-3-fluoro-4-{[2-(2-hydroxy-4,6-dimethylphenyl)-2H-pyrazolo[3,4-d][1,3]thiazol-5-yl]amino}pyrrolidin-1-yl](1-hydroxycyclopropyl) methanone and [(3S,4S)-3-fluoro-4-{[2-(2-hydroxy-4,6-dimethylphenyl)-2H-pyrazolo[3,4-d][1,3]thiazol-5-yl]amino}pyrrolidin-1-yl](1-hydroxycyclopropyl)methanone] | 340 | > 30000 | 
Cc1cc(C)c(-n2cc3sc(N[C@H]4CN(C)CC4(F)F)nc3n2)c(O)c1 [Example 160, 2-(5-{[(3S)-4,4-difluoro-1-methylpyrrolidin-3-yl]amino}-2H-pyrazolo[3,4-d][1,3]thiazol-2-yl)-3,5-dimethylphenol] | 1300 | > 30000 | 
CO[C@H](C)CNc1nc2nn(-c3c(C)cc(C)cc3O)cc2s1 [Example 120, 2-(5-{[(2R)-2-methoxypropyl]amino}-2H-pyrazolo[3,4-d][1,3]thiazol-2-yl)-3,5-dimethylphenol] | 720 | > 30000 | 
COCCN(C)c1nc2nn(-c3c(C)cc(C)cc3O)cc2s1 [Example 61, 2-{5-[(2-methoxyethyl)(methyl)amino]-2H-pyrazolo[3,4-d][1,3]thiazol-2-yl}-3,5-dimethylphenol] | 2000 | > 10000 | 
CC(=O)N1CCCC(Nc2nc3nn(-c4c(C)cc(C)cc4O)cc3s2)C1 (centres unmarked) [Example 108, 1-(3-{[2-(2-hydroxy-4,6-dimethylphenyl)-2H-pyrazolo[3,4-d][1,3]thiazol-5-yl]amino}piperidin-1-yl)ethan-1-one] | 610 | > 30000 | 
Cc1cc(C)c(-n2cc3sc(N[C@H]4CN(C)C[C@@H]4F)nc3n2)c(O)c1 [Example 80, 2-(5-{[(3S,4S)-4-fluoro-1-methylpyrrolidin-3-yl]amino}-2H-pyrazolo[3,4-d][1,3]thiazol-2-yl)-3,5-dimethylphenol] | 37 | > 30000 | 
Cc1cc(C)c(-n2cc3sc(NC[C@@H]4CCCO4)nc3n2)c(O)c1 [Example 116, 3,5-dimethyl-2-[5-({[(2S)-oxolan-2-yl]methyl}amino)-2H-pyrazolo[3,4-d][1,3]thiazol-2-yl]phenol] | 1100 | > 30000 | 
COC(=O)N1CCC(Nc2nc3nn(-c4c(C)cc(C)cc4O)cc3s2)C1 (centres unmarked) [Example 91, methyl 3-{[2-(2-hydroxy-4,6-dimethylphenyl)-2H-pyrazolo[3,4-d][1,3]thiazol-5-yl]amino}pyrrolidine-1-carboxylate] | 660 | > 10000 | 
Cc1cc(C)c(-n2cc3sc(NC[C@@H](C)O)nc3n2)c(O)c1 [Example 34, 2-(5-{[(2R)-2-hydroxypropyl]amino}-2H-pyrazolo [3,4-d][1,3]thiazol-2-yl)-3,5-dimethylphenol] | 150 | > 10000 | 

Further compounds by falling IC50 (NLRP3 inflammasome), results first:

IC50 (NLRP3 inflammasome) [nM] | IC50 (NF-κB pathway; [1]) [nM] | IC50 (NF-κB pathway; THP-1 macrophages) [nM] | SMILES
1200 | > 30000 |  | Cc1cc(C)c(-n2cc3sc(NC4CCN(S(C)(=O)=O)CC4)nc3n2)c(O)c1 [Example 128, 2-(5-{[1-(methanesulfonyl)piperidin-4-yl]amino}-2H-pyrazolo[3,4-d][1,3]thiazol-2-yl)-3,5-dimethylphenol]
1100 | > 30000 |  | Cc1cc(C)c(-n2cc3sc(N[C@H]4CN(C)C[C@H]4F)nc3n2)c(O)c1 (racemic) [Example 22, racemic mixture of 2-(5-{[(3R,4S)-4-fluoro-1-methylpyrrolidin-3-yl]amino}-2H-1-pyrazolo[3,4-d][1,3]thiazol-2-yl)-3,5-dimethyl-phenol and 2-(5-{[(3S,4R)-4-fluoro-methylpyrrolidin-3-yl]amino}-2H-pyrazolo[3,4-d][1,3]thiazol-2-yl)-3,5-dimethylphenol]
550 | > 30000 |  | Cc1cc(C)c(-n2cc3sc(N[C@H]4COC[C@@H]4F)nc3n2)c(O)c1 (single isomer, unassigned) [Example 142, 2-(5-{[(3R,4S)-4-fluorooxolan-3-yl]amino}-2H-pyrazolo[3,4-d][1,3]thiazol-2-yl)-3,5-dimethylphenol or 2-(5-{[(3S,4R)-4-fluorooxolan-3-yl]amino}-2H-pyrazolo[3,4-d][1,3]thiazol-2-yl)-3,5-dimethylphenol (tR1)]
460 | > 30000 |  | Cc1cc(C)c(-n2cc3sc(NC4CCN(C(=O)C5(F)CC5)C4)nc3n2)c(O)c1 (centres unmarked) [Example 98, (1-fluorocyclopropyl)(3-{[2-(2-hydroxy-4,6-dimethylphenyl)-2H-pyrazolo[3,4-d][1,3]thiazol-5-yl]amino}pyrrolidin-1-yl)methanone]
440 |  | > 30000 | Cc1cc(C)c(-n2cc3sc(N[C@H]4COC[C@H]4F)nc3n2)c(O)c1 (single isomer, unassigned) [Example 145, 2-(5-{[(3R,4R)-4-fluorooxolan-3-yl]amino}-2H-pyrazolo[3,4-d][1,3]thiazol-2-yl)-3,5-dimethylphenol or 2-(5-{[(3S,4S)-4-fluorooxolan-3-yl]amino}-2H-pyrazolo[3,4-d][1,3]thiazol-2-yl)-3,5-dimethylphenol (tR2)]
370 | > 30000 |  | Cc1cc(C)c(-n2cc3sc(NC(CO)CO)nc3n2)c(O)c1 [Example 168, 2-{[2-(2-hydroxy-4,6-dimethylphenyl)-2H-pyrazolo[3,4-d][1,3]thiazol-yl]amino}propane-1,3-diol]
310 | > 30000 |  | Cc1cc(C)c(-n2cc3sc(N[C@H]4CN(C(=O)CC5CC5)C[C@@H]4F)nc3n2)c(O)c1 (racemic) [Example 106, racemic mixture of 2-cyclopropyl-1-[(3R,4R)-3-fluoro-4-{[2-(2-hydroxy-4,6-dimethylphenyl)-2H-pyrazolo[3,4-d][1,3]thiazol-5-yl]amino}pyrrolidin-1-yl]ethan-1-one and 2-cyclopropyl-1-[(3S,4S)-3-fluoro-4-{[2-(2-hydroxy-4,6-dimethylphenyl)-2H-pyrazolo[3,4-d][1,3]thiazol-5-yl]amino}pyrrolidin-1-yl]ethan-1-one]
290 | > 30000 |  | CN1C[C@H](F)C[C@@H](Nc2nc3nn(-c4c(O)cccc4Cl)cc3s2)C1 [Example 8, 3-chloro-2-(5-{[(3R,5R)-5-fluoro-1-methylpiperidin-3-yl]amino}-2H-pyrazolo[3,4-d][1,3]thiazol-2-yl)phenol]
3.8 | > 30000 |  | Cc1cc(O)c(-n2cc3sc(N[C@@H]4C[C@@H](F)CN(C)C4)nc3n2)c(C2CC2(F)F)c1 (single isomer, unassigned) [Example 126, 3-[(R)-2,2-difluorocyclopropyl]-2-(5-{[(3R,5R)-5-fluoro-1-methylpiperidin-3-yl]amino}-2H-pyrazolo[3,4-d][1,3]thiazol-2-yl)-5-methylphenol or 3-[(S)-2,2-difluorocyclopropyl]-2-(5-{[(3R,5R)-5-fluoro-1-methylpiperidin-3-yl]amino}-2H-pyrazolo[3,4-d][1,3]thiazol-2-yl)-5-methylphenol (tR2)]
